Reference: patent US20020182635A1, “Methods of screening for LTRPC2 modulators” (priority 2000, published 2002)
Read-outs that look alike come from different tables or passages of the source.

Columns and labels:
[1] = molecular target: T1, NUDT9 (Homo sapiens, UniProt Q9BW91); experiment: Nudix-type hydrolase activity towards a panel of substrates, NUDT9; format: biochemical; settings: purified bacterially expressed NUDT9
T1 construct: made in house; host or cells: E. coli BL21 (DE3), pET-24d
T1 sequence (Q9BW91 47-350): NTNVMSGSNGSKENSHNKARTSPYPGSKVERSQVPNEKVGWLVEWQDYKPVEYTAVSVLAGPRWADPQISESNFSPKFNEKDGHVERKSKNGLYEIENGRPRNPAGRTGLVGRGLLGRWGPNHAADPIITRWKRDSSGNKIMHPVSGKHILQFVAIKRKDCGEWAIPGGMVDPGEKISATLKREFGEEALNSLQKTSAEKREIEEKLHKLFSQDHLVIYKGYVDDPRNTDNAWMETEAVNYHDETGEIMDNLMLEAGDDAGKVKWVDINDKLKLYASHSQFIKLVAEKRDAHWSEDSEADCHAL
Procedure: (§1) FIG. 2(B) is a characterization of the enzymatic activity of NUDT9 and NUDT9-H. Purified preparations of NUDT9 and NUDT9-H were screened for Nudix-type activity towards a panel of substrates as described in the methods section. Km and Vmax were calculated by non-linear regression analysis of Lineweaver-Burke plots.
(§2) BL21 (DE3) cells containing the respective expression plasmids were grown at 37° C. in LB broth on a shaker to an A600 of about 0.6 and induced by the addition of isopropyl-b-D-thiogalactopyranoside to a concentration of 1 mM. The cells were grown for an additional 4 h, harvested, washed by suspension in isotonic saline, centrifuged in pre-weighed centrifuge tubes, and the packed cells were stored at −80 ° C. […] In the case of NUDT9, enzyme was extracted in the freeze-thaw fraction and ammonium sulfate was added to 35% final concentration. The precipitate was discarded after centrifugation and ammonium sulfate was added to the supernatant to a final concentration of 50%. The precipitate was collected by centrifugation, dissolved, then chromatographed on a gel filtration column (Sephadex G-100). The active fractions containing the majority of the enzyme were pooled, concentrated by centrifugation in an Amicon Centriprep30, dialyzed, and chromatographed on DEAE-sepharose. The purified enzyme was concentrated from the pooled active fractions again using an Amicon Centriprep30. For the NUDT9 homology region of LTRPC2, the protein was extracted in the freeze-thaw fraction and ammonium sulfate was added to 35% final concentration and centrifuged. The precipitate was dissolved, dialyzed, and chromatographed on DEAE-sepharose. The purified enzyme was concentrated from the pooled active fractions by precipitation with 70% ammonium sulfate.
(§3) Enzyme Assay: Enzyme velocities were quantified by measuring the conversion of a phosphatase-insensitive substrate, ADPR, to the phosphatase-sensitive products, AMP and ribose-5-phosphate. The liberated inorganic orthophosphate was measured by the procedure of Ames and DubinENRfu^27. The standard incubation mixture ([…]) contained 50 mM Tris-Cl, pH 9.0, 16 mM MgCl2, 2 mM ADPR, 0.2-1 milliunitsof enzyme and 4 units of alkaline intestinal phosphatase. After 30 min at 37° C., the reaction was terminated by the addition of EDTA and inorganic orthophosphate was measured. A unit of enzyme hydrolyzes […] of substrate per min under these conditions. Note that 2 moles of phosphate are liberated per mole of ADPR hydrolyzed. Product determination: The standard assay mixture (minus alkaline intestinal phosphatase) was incubated for 30 min at 37° C. and terminated by the addition of […] of a mixture of four parts of Norit (20% packed volume) and one part of 7% HClO4 to remove adenine-containing nucleotides. After centrifugation, […] was adjusted to an alkaline pH and incubated for an additional 30 min at 37° C. with alkaline intestinal phosphatase to hydrolyze the ribose-5-phosphate formed.

[2] = molecular target: T2, LTRPC2 NUDT9-H (Homo sapiens, UniProt O94759); experiment: Nudix-type hydrolase activity towards a panel of substrates, NUDT9-H region of LTRPC2; format: biochemical; settings: purified bacterially expressed NUDT9-H of LTRPC2
T2 construct: an artificial start codon, amino acids 1197-1503, a stop codon; artificial initiating Met (artificial start codon) (N); made in house; host or cells: E. coli BL21 (DE3), pET-24d
T2 sequence (O94759 1197-1503): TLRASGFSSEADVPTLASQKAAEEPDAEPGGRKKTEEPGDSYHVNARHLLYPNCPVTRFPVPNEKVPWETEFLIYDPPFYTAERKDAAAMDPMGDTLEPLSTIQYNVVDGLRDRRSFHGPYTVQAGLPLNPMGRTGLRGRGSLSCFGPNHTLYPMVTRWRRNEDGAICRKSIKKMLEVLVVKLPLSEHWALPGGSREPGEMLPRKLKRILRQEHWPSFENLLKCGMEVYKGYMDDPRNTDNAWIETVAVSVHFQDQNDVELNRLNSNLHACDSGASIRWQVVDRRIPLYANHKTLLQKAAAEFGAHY
Procedure: as §1, §2, §3

[3] = molecular target: T3, LTRPC2 (Homo sapiens, UniProt O94759); experiment: ADPR-dependent gating of LTRPC2, whole-cell patch-clamp in tetracycline-induced HEK-293 cells expressing FLAG-LTRPC2; format: cell-based
T3 construct: beginning at amino acid 3 and extending to amino acid 1503; FLAG tag within the printed N-terminal leader […]; expressed in transfected cells
T3 sequence (O94759 3-1503): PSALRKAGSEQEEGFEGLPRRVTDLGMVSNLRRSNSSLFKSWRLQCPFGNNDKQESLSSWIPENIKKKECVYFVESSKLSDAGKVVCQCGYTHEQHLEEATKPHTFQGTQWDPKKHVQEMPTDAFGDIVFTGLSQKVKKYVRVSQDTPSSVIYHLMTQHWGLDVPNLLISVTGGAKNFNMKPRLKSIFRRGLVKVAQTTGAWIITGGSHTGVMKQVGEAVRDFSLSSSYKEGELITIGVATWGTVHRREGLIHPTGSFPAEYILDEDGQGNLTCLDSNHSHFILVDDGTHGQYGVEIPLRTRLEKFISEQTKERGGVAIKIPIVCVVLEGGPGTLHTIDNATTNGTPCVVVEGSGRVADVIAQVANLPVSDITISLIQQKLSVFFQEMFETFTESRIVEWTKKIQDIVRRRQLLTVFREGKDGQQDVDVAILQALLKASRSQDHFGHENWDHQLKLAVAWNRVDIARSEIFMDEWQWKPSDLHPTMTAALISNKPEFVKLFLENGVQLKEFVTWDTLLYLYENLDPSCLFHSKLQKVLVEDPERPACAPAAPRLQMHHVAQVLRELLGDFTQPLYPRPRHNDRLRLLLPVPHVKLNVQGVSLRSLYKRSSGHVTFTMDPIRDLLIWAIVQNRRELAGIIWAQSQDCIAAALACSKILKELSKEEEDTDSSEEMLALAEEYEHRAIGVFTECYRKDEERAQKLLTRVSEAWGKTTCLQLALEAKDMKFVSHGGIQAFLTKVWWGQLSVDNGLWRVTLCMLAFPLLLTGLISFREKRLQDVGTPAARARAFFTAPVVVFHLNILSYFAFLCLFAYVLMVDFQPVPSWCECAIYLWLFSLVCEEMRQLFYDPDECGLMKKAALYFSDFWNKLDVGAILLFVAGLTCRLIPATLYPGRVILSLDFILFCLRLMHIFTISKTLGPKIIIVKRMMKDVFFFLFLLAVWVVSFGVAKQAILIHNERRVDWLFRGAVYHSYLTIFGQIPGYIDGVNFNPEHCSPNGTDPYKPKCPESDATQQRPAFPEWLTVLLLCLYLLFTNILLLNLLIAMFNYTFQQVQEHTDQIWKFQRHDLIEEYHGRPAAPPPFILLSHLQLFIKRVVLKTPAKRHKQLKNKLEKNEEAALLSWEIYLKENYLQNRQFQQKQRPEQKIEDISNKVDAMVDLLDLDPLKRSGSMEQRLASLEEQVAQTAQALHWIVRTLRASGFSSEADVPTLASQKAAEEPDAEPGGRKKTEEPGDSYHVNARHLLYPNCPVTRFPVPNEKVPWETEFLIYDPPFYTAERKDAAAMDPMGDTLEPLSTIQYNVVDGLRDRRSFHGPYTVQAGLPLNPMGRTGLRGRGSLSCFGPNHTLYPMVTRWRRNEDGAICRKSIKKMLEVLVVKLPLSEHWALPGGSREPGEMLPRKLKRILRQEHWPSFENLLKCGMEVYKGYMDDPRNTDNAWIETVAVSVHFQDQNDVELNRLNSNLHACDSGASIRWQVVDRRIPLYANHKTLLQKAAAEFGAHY
Procedure: 10^6 cells were analyzed for expression of a FLAG-reactive protein by anti-FLAG immunoprecipitation/anti-FLAG immunoblotting. […] The open symbols represent superimposed analyses of responses obtained from (i) wild-type HEK-293 cells (WT) perfused with standard internal solution in the absence of ADPR (n=3±sem); (ii) uninduced cells perfused with standard internal solution in the absence of ADPR (n=5±sem); (iii) uninduced HEK-293 cells perfused with standard solution containing 1 mM ADPR (n=3±sem); (iv) tet-induced HEK-293 cells perfused with standard internal solution without ADPR present (n=4±sem). […] The filled symbols indicate the time points at which individual high-resolution data traces were extracted for presentation as I/V curves in FIG. 3(F). […] Ramp currents were recorded in response of a standard voltage ramp stimulus (−100 mV to +100 mV in 50 ms).
FIG. 4 depicts the characterization of ADPR-dependent currents in LTRPC2-expressing in HEK-293 cells. […] HEK-293 cells expressing FLAG-LTRPC2 were perfused with defined ADPR concentrations ranging from […] to 1 mM, and currents were measured at −80 mV as in FIG. 3(D). The maximum current amplitude of individual cells was derived by analyzing the time course of current development (see e.g., FIGS. 3(C) and 3(D)) and fitting a Boltzmann curve to the rising phase of the developing cationic conductance. Peak current amplitudes were averaged and plotted versus ADPR concentration (n=5 to 12±sem). […] FIG. 4(B) depicts the kinetics of ADPR-dependent gating of LTRPC2. The temporal development of ADPR-gated currents was assessed as described in FIG. 4(A) by fitting a Boltzmann curve to the rising phase of the developing cationic conductance. The mid-point values of this analysis correspond to the time of half-maximal current activation, and are plotted as a function of ADPR concentration. […] HEK-293 cells expressing FLAG-LTRPC2 were perfused with 100 μM ADPR. 80 seconds into the experiment, and indicated by the bar, isotonic CaCl2 solution (120 mM CaCl2, 300 mOsm) was applied externally for 20 seconds.
Wild type and tetracycline-inducible HEK-293 FLAG-LTRPC2 expressing cells were cultured at 37° C./5% CO2 in DMEM supplemented with 10% FBS and 2 mM glutamine. The medium was supplemented with blasticidin (5 μg/ml; Invitrogen) and zeocin (0.4 mg/ml; Invitrogen). Cells were resuspended in media containing 1 μg/ml tetracycline (Invitrogen) 24 hours before experiments.
For patch-clamp experiments, cells grown on coverslips were transferred to the recording chamber and kept in a standard modified Ringer's solution of the following composition (in mM): NaCl 145, KCl 2.8, CaCl2 1, MgCl2 2, glucose 10, Hepes-NaOH 10, pH 7.2. Intracellular pipette-filling solutions contained (in mM): Cs-glutamate 145, NaCl 8, MgCl2 1, Cs-BAPTA 10, pH 7.2 adjusted with CsOH.

[4] = tested on: ADPR-dependent current (IADPR) in human U937 monocytes; experiment: Endogenous ADPR-dependent current (IADPR), whole-cell patch-clamp in U937 monocytes; format: cell-based; settings: U937 cells; for EC50: read-out: apparent EC50 for IADPR
Procedure: FIG. 5 depicts the characterization of endogenous ADPR-dependent current(IADPR) in human U937 monocytes. […] In the right lane, the blot identifies LTRPC2 mRNA in native U937 cells. […] FIG. 5(B) depicts the temporal development of inward currents in U937 cells at −80 mV activated by different intracellular concentrations of ADPR in the presence of 10 mM BAPTA (n=4-11 each). FIG. 5(C) depicts the temporal development of inward currents in U937 cells at −80 mV activated by different intracellular concentrations of ADPR while [Ca^2+]i was buffered to 100 nM (n=5-7 each). FIG. 5(D) depicts the temporal development of inward currents in U937 cells at −80 mV activated by different intracellular concentrations of ADPR in the absence of exogenous buffers (n=5-9 each). […] Representative current record in response to a voltage ramp ranging from −100 to +100 mV over 50 ms. The record was obtained 100 s after whole-cell establishment from a cell perfused with 100 μM ADPR under unbuffered conditions.
For patch-clamp experiments, cells grown on coverslips were transferred to the recording chamber and kept in a standard modified Ringer's solution of the following composition (in mM): NaCl 145, KCl 2.8, CaCl2 1, MgCl2 2, glucose 10, Hepes-NaOH 10, pH 7.2. Intracellular pipette-filling solutions contained (in mM): Cs-glutamate 145, NaCl 8, MgCl2 1, Cs-BAPTA 10, pH 7.2 adjusted with CsOH. In some experiments, BAPTA was omitted from the pipette solution and 100 μM fura-2 was added for the purpose of fluorimetric monitoring of intracellular Ca^2+ concentration. […] The agonists were dissolved in the standard intracellular solution. Patch-clamp experiments were performed in the tight-seal whole-cell configuration at 21-25° C. High-resolution current recordings were acquired by a computer-based patch-clamp amplifier system (EPC-9, HEKA, Lambrecht, Germany). Patch pipettes had resistances between 2-4 MW after filling with the standard intracellular solution. Immediately following establishment of the 5 whole-cell configuration, voltage ramps of 50 ms duration spanning the voltage range of −100 to +100 mV were delivered from a holding potential of 0 mV at a rate of 0.5 Hz over a period of 200 to 400 seconds. All voltages were corrected for a liquid junction potential of 10 mV between external and internal solutions. Currents were filtered at 2.9 kHz and digitized at 100 μs intervals. Capacitive currents and series resistance were determined and corrected before each voltage ramp using the automatic capacitance compensation of the EPC-9. For analysis, the very first ramps prior to current activation were digitally filtered at 2 kHz, pooled and used for leak-subtraction of all subsequent current records. […]

SMILES | hydrolysis as substrate by NUDT9 [1] | hydrolysis as substrate by NUDT9-H [2] | also measured
Nc1ncnc2c1ncn2[C@@H]1O[C@H](COP(=O)(O)OP(=O)(O)O[C@H]2O[C@H](CO)[C@@H](O)[C@H](O)[C@H]2O)[C@@H](O)[C@H]1O [ADP-lucose] | not hydrolyzed | not hydrolyzed | 
Nc1ncnc2c1ncn2[C@@H]1O[C@H](COP(=O)(O)OP(=O)(O)OC[C@H]2OC(O)[C@H](O)[C@@H]2O)[C@@H](O)[C@H]1O (stereo partly drawn) [ADPR, Adenosine 5-diphospho (ADP)-ribose] |  |  | Hill coefficient of dose-response curve ([3]; HEK-293 cells expressing FLAG-LTRPC2, currents at −80 mV): 9; EC50 ([3]; HEK-293 cells expressing FLAG-LTRPC2, intracellular perfusion, peak currents at −80 mV, read-out: apparent EC50 of ADPR-dependent gating of LTRPC2): 90 µM; cells that generated currents above control levels ([3]; cells perfused with 60 μM ADPR or higher (n=38)): 91%; intracellular concentration at which gating of the LTRPC2 channel begins ([3]; intracellular ADPR): 60 to 100 µM; intracellular concentration at which saturation occurs ([3]; intracellular ADPR): ~300 µM; membrane currents at −80 mV ([3]; tet-induced HEK-293 cells expressing FLAG-LTRPC2 perfused with 100 μM ADPR): large inward currents; Hill coefficient ([4]; [Ca2+]i buffered to 100 nM): 8; EC50 ([4]; [Ca2+]i buffered to 100 nM): 130 µM; Hill coefficient ([4]; unbuffered): 8; EC50 ([4]; unbuffered (exogenous buffers omitted)): 40 µM
Nc1nc2c(ncn2[C@@H]2O[C@H](COP(=O)(O)OP(=O)(O)O[C@H]3O[C@H](CO)[C@@H](O)[C@H](O)[C@@H]3O)[C@@H](O)[C@H]2O)c(=O)[nH]1 [GDP-mannose] | not hydrolyzed | not hydrolyzed | 
NC(=O)C1=CN([C@@H]2O[C@H](COP(=O)(O)OP(=O)(O)OC[C@H]3O[C@@H](n4cnc5c(N)ncnc54)[C@H](O)[C@@H]3O)[C@@H](O)[C@H]2O)C=CC1 [NADH] | not hydrolyzed | not hydrolyzed | 
NC(=O)c1ccc[n+]([C@@H]2O[C@H](COP(=O)([O-])OP(=O)(O)OC[C@H]3O[C@@H](n4cnc5c(N)ncnc54)[C@H](O)[C@@H]3O)[C@@H](O)[C@H]2O)c1 [NAD^+, nicotinamide adenine dinucleotide] | not hydrolyzed | not hydrolyzed | 
Nc1ccn([C@H]2C[C@H](O)[C@@H](COP(=O)(O)OP(=O)(O)OP(=O)(O)O)O2)c(=O)n1 [deoxy-CTP] | not hydrolyzed | not hydrolyzed | 
Nc1nc2c(ncn2[C@H]2C[C@H](O)[C@@H](COP(=O)(O)OP(=O)(O)OP(=O)(O)O)O2)c(=O)[nH]1 [deoxy-GTP] | not hydrolyzed | not hydrolyzed | 
Cc1cn([C@H]2C[C@H](O)[C@@H](COP(=O)(O)OP(=O)(O)OP(=O)(O)O)O2)c(=O)[nH]c1=O [deoxy-TTP] | not hydrolyzed | not hydrolyzed | 
